# Measured values published in publication PMC2997755 (Clinical cancer research : an official journal of the …, 2009).
# Where two headings read alike, the source gives them in different places.
# How the values were obtained:
# clinical = format: in vivo; conditions: for AUC(0-inf) / AUC(0-t) / clearance / Cmax / half-life: human, plasma
# [1] = human, in vivo
# [2] = Phase I safety and tolerability: DLTs, MTD, adverse events; conditions: sequential schedule dose level -1b; days 6-12, with decitabine 10 mg/m^2/day on days 1-5
# [3] = cited from earlier work
# [4] = Vorinostat serum pharmacokinetics, cycle 1; format: in vivo; conditions: for CL/F / AUC(0-inf) / AUC(0-t) / Cmax / half-life: mean (St dev); for AUC(0-inf) / AUC(0-t) / Cmax / half-life: human, serum, oral; for AUC(0-inf): AUCinf; for AUC(0-t): AUCt
# [5] = 100 mg, Sequential schedule, 100 mg BID, day 9 of cycle 1
# [6] = 200 mg, Concurrent schedule, 200 mg BID, day 4 of cycle 1
# [7] = 200 mg, Sequential schedule, 200 mg BID, day 9 of cycle 1
# [8] = 200 mg, Sequential schedule, 200 mg TID, day 9 of cycle 1
# [9] = 200 mg, Concurrent schedule, 200 mg TID, day 4 of cycle 1
smiles,measurement,setting,value
"Nc1ncn([C@H]2C[C@H](O)[C@@H](CO)O2)c(=O)n1 [decitabine, 5-aza-2'-deoxycytidine]",Pharmacokinetic parameters on day 1 versus day 5 within the same dose level,clinical; either schedule,No significant differences
same,AUC(0-inf),"clinical; intravenous, 10 mg/m2, AUCinf, Concurrent schedule, 10 mg/m^2, Day 1, mean (St dev)",77.6 ng·h/mL
same,AUC(0-inf),"clinical; intravenous, 10 mg/m2, AUCinf, Concurrent schedule, 10 mg/m^2, Day 5, mean (St dev)",57.4 ng·h/mL
same,AUC(0-inf),"clinical; intravenous, 10 mg/m2, AUCinf, Sequential schedule, 10 mg/m^2, Day 1, mean (St dev)",48.4 ng·h/mL
same,AUC(0-inf),"clinical; intravenous, 10 mg/m2, AUCinf, Sequential schedule, 10 mg/m^2, Day 5, mean (St dev)",57.8 ng·h/mL
same,AUC(0-t),"clinical; intravenous, 10 mg/m2, AUCt, Concurrent schedule, 10 mg/m^2, Day 1, mean (St dev)",75.8 ng·h/mL
same,AUC(0-t),"clinical; intravenous, 10 mg/m2, AUCt, Concurrent schedule, 10 mg/m^2, Day 5, mean (St dev)",56.3 ng·h/mL
same,AUC(0-t),"clinical; intravenous, 10 mg/m2, AUCt, Sequential schedule, 10 mg/m^2, Day 5, mean (St dev)",55.8 ng·h/mL
same,clearance,"clinical; intravenous, 10 mg/m2, CL, Concurrent schedule, 10 mg/m^2, Day 1, mean (St dev)",4670 mL/min
same,clearance,"clinical; intravenous, 10 mg/m2, CL, Concurrent schedule, 10 mg/m^2, Day 5, mean (St dev)",5570 mL/min
same,clearance,"clinical; intravenous, 10 mg/m2, CL, Sequential schedule, 10 mg/m^2, Day 1, mean (St dev)",7600 mL/min
same,clearance,"clinical; intravenous, 10 mg/m2, CL, Sequential schedule, 10 mg/m^2, Day 5, mean (St dev)",6130 mL/min
same,Cmax,"clinical; intravenous, 10 mg/m2, Cmax, Concurrent schedule, 10 mg/m^2, Day 1, mean (St dev)",88.6 ng/mL
same,Cmax,"clinical; intravenous, 10 mg/m2, Cmax, Concurrent schedule, 10 mg/m^2, Day 5, mean (St dev)",62.9 ng/mL
same,Cmax,"clinical; intravenous, 10 mg/m2, Cmax, Sequential schedule, 10 mg/m^2, Day 1, mean (St dev)",57.5 ng/mL
same,Cmax,"clinical; intravenous, 10 mg/m2, Cmax, Sequential schedule, 10 mg/m^2, Day 5, mean (St dev)",67.5 ng/mL
same,half-life,"clinical; intravenous, 10 mg/m2, t1/2, Concurrent schedule, 10 mg/m^2, Day 1, mean (St dev)",16.2 min
same,half-life,"clinical; intravenous, 10 mg/m2, t1/2, Concurrent schedule, 10 mg/m^2, Day 5, mean (St dev)",16.2 min
same,half-life,"clinical; intravenous, 10 mg/m2, t1/2, Sequential schedule, 10 mg/m^2, Day 1, mean (St dev)",20.4 min
same,half-life,"clinical; intravenous, 10 mg/m2, t1/2, Sequential schedule, 10 mg/m^2, Day 5, mean (St dev)",22.8 min
same,AUC(0-inf),"clinical; intravenous, 15 mg/m2, AUCinf, Sequential schedule, 15 mg/m^2, Day 1, mean (St dev)",116 ng·h/mL
same,AUC(0-inf),"clinical; intravenous, 15 mg/m2, AUCinf, Sequential schedule, 15 mg/m^2, Day 5, mean (St dev)",116 ng·h/mL
same,AUC(0-t),"clinical; intravenous, 15 mg/m2, AUCt, Sequential schedule, 15 mg/m^2, Day 1, mean (St dev)",112 ng·h/mL
same,AUC(0-t),"clinical; intravenous, 15 mg/m2, AUCt, Sequential schedule, 15 mg/m^2, Day 5, mean (St dev)",114 ng·h/mL
same,clearance,"clinical; intravenous, 15 mg/m2, CL, Sequential schedule, 15 mg/m^2, Day 1, mean (St dev)",5670 mL/min
same,clearance,"clinical; intravenous, 15 mg/m2, CL, Sequential schedule, 15 mg/m^2, Day 5, mean (St dev)",3930 mL/min
same,Cmax,"clinical; intravenous, 15 mg/m2, Cmax, Sequential schedule, 15 mg/m^2, Day 1, mean (St dev)",129 ng/mL
same,Cmax,"clinical; intravenous, 15 mg/m2, Cmax, Sequential schedule, 15 mg/m^2, Day 5, mean (St dev)",142 ng/mL
same,half-life,"clinical; intravenous, 15 mg/m2, t1/2, Sequential schedule, 15 mg/m^2, Day 1, mean (St dev)",22.8 min
same,half-life,"clinical; intravenous, 15 mg/m2, t1/2, Sequential schedule, 15 mg/m^2, Day 5, mean (St dev)",19.8 min
same,AUC(0-inf),"clinical; intravenous, 20 mg/m2, AUCinf, Sequential schedule, 20 mg/m^2, Day 1, mean (St dev)",119 ng·h/mL
same,AUC(0-inf),"clinical; intravenous, 20 mg/m2, AUCinf, Sequential schedule, 20 mg/m^2, Day 5, mean (St dev)",165 ng·h/mL
same,AUC(0-t),"clinical; intravenous, 20 mg/m2, AUCt, Sequential schedule, 20 mg/m^2, Day 1, mean (St dev)",115 ng·h/mL
same,AUC(0-t),"clinical; intravenous, 20 mg/m2, AUCt, Sequential schedule, 20 mg/m^2, Day 5, mean (St dev)",161 ng·h/mL
same,clearance,"clinical; intravenous, 20 mg/m2, CL, Sequential schedule, 20 mg/m^2, Day 1, mean (St dev)",5280 mL/min
same,clearance,"clinical; intravenous, 20 mg/m2, CL, Sequential schedule, 20 mg/m^2, Day 5, mean (St dev)",3920 mL/min
same,Cmax,"clinical; intravenous, 20 mg/m2, Cmax, Sequential schedule, 20 mg/m^2, Day 1, mean (St dev)",135 ng/mL
same,Cmax,"clinical; intravenous, 20 mg/m2, Cmax, Sequential schedule, 20 mg/m^2, Day 5, mean (St dev)",198 ng/mL
same,half-life,"clinical; intravenous, 20 mg/m2, t1/2, Sequential schedule, 20 mg/m^2, Day 1, mean (St dev)",21.6 min
same,half-life,"clinical; intravenous, 20 mg/m2, t1/2, Sequential schedule, 20 mg/m^2, Day 5, mean (St dev)",25.2 min
same,half-life,"clinical; iv, half-life, patients, 1-hour intravenous infusion",~20 min
same,Dose proportionality of Cmax and AUC,"clinical; sequential schedule, increasing doses of decitabine",did not produce dose proportional increases
same,RP2D (recommended phase II dose),[1],10 mg/m^2/day
"O=C(CCCCCCC(=O)Nc1ccccc1)NO [vorinostat, suberoylanilide hydroxamic acid]",RP2D (recommended phase II dose),[2],200 mg twice daily
same,"maximum tolerated dose, monotherapy",[3]; patients with hematologic malignancies,250 mg orally thrice a day for 14 days every 21 days
same,"maximum tolerated dose, monotherapy",[3]; patients with solid tumors,200 mg orally twice a day continuously
same,"Cmax, AUCinf and AUCt, concurrent versus sequential schedule","[4]; 200mg BID dose level, p 0.09, 0.004 and 0.0005",lower in the concurrent schedule
same,CL/F,"[4]; Concurrent schedule, 200 mg BID, day 4 of cycle 1",5.3 (2.3) ml/min
same,CL/F,"[4]; Sequential schedule, 100 mg BID, day 9 of cycle 1",4.3(2.3) ml/min
same,CL/F,"[4]; Sequential schedule, 200 mg BID, day 9 of cycle 1",3(0.7) ml/min
same,CL/F,"[4]; Sequential schedule, 200 mg TID, day 9 of cycle 1",4(3.7) ml/min
same,AUC(0-inf),[4]; [5],446 ng·h/mL
same,AUC(0-t),[4]; [5],424 ng·h/mL
same,Cmax,[4]; [5],165 ng/mL
same,half-life,"[4]; 100 mg, t1/2, Sequential schedule, 100 mg BID, day 9 of cycle 1",83.4 min
same,AUC(0-inf),[4]; [6],708 ng·h/mL
same,AUC(0-inf),[4]; [7],1180 ng·h/mL
same,AUC(0-inf),[4]; [8],1350 ng·h/mL
same,AUC(0-t),[4]; [6],573 ng·h/mL
same,AUC(0-t),[4]; [9],883 ng·h/mL
same,AUC(0-t),[4]; [7],1020 ng·h/mL
same,AUC(0-t),[4]; [8],1090 ng·h/mL
same,Cmax,[4]; [6],214 ng/mL
same,Cmax,[4]; [9],227 ng/mL
same,Cmax,[4]; [7],313 ng/mL
same,half-life,"[4]; 200 mg, t1/2, Concurrent schedule, 200 mg BID, day 4 of cycle 1",143 min
same,half-life,"[4]; 200 mg, t1/2, Sequential schedule, 200 mg BID, day 9 of cycle 1",153 min
same,half-life,"[4]; 200 mg, t1/2, Sequential schedule, 200 mg TID, day 9 of cycle 1",103 min
same,Dose proportionality of AUC and Cmax after a single administration,"[4]; sequential schedule, dose increased from 100 mg to 200 mg",increased proportionaly
